Entries after “also recorded” stand apart in the source; their conditions may differ.
Legend:
ASH1L S2259M = target: T1, ASH1L S2259M (Homo sapiens, UniProt Q9NR48, S2264M); experiment: NMR binding to S2259M mutant; conditions: NMR chemical shift perturbations
T1 construct: ASH1L SET domain (2069–2288) in the buffer; made in house
Procedure: For fragment screening, we used an in-house library of 1600 fragment-like compounds with the following properties: average Mw = 183 Da (range of 84–345 Da), mean clogP = 1.5 (from −2.5 to 3.7), hydrogen bond acceptors: from 0 to 6 (median = 3), hydrogen bond donors: 0 to 3 (median = 1).
Supplementary Figure 2. Binding of ASH1L inhibitors. (a) Superposition of the H- N TROSY-HSQC spectra of 100 µM ASH1L SET with 5% DMSO (black) or with 1 mM of compound 1 (red). Most perturbed residues are marked in boxes. (b) Superposition of the crystal structure of ASH1L SET domain (4YNM in PDB) and S2259M mutant of ASH1L (4YNP in PDB). (c) Superposition of the 1H-15N TROSY-HSQC spectra of 100 µM ASH1L S2259M mutant

ASH1L SET domain = target: T2, ASH1L SET domain (Homo sapiens, UniProt Q9NR48); experiment: NMR titration (1H-15N TROSY-HSQC); format: binding; conditions: linear chemical shift perturbations up to 1 mM
T2 construct: ASH1L SET domain (amino acids 2069–2288) was expressed and purified; Mocr (N, cleaved yes); made in house; host or cells: E. coli BL21(DE3)

NC(=S)c1cccc(-n2cccc2)c1 [compound 1]
binding to ASH1L S2259M mutant (ASH1L S2259M): no binding; also recorded: not bind to the S2259M mutant | Kd (ASH1L SET domain): > 1000 µM
